This passage reports IC50 and MEC results from patent US9688699B2, “3-(pyrimidine-2-yl)imidazo[1,2-a]pyridines” (Bayer Pharma Aktiengesellschaft, priority 2014, dated 2017).

Molecules are shown by their SMILES. Structures can show the parent of a compound that is named as a salt.

Test [1] deals with T1, human phosphodiesterase 5 (PDE 5) (Homo sapiens, UniProt O76074).
T1 construct: PDE 5 preparations are obtained from human platelets by disruption; from tissue; host or cells: human platelets (Mono Q ion exchange fractions with PDE 5 activity)
Nature of the test: Inhibition of human phosphodiesterase 5 (PDE 5) (B-3). The class given is biochemical. Particulars: PDE 5 preparation from human platelets; [8-3H] cGMP substrate, SPA; in some cases means of individual determinations. Summed up:
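Enzyme partially purified from human platelets by Mono Q ion exchange; [8-3H]cGMP substrate (0.025 μCi), Tris-HCl pH 7.5 with MgCl2/EDTA, <70% conversion, 60 min at room temperature. Compounds tested at 4 to 0.0018 μM final; yttrium SPA bead read-out, IC50 from concentration–% inhibition plot.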

Test [2] concerns the target T2, recombinant guanylate cyclase reporter cell line (Rattus norvegicus, UniProt P19686+P20595).
T2 construct: expressed in transfected cells
T2 sequence (P19686 1-690): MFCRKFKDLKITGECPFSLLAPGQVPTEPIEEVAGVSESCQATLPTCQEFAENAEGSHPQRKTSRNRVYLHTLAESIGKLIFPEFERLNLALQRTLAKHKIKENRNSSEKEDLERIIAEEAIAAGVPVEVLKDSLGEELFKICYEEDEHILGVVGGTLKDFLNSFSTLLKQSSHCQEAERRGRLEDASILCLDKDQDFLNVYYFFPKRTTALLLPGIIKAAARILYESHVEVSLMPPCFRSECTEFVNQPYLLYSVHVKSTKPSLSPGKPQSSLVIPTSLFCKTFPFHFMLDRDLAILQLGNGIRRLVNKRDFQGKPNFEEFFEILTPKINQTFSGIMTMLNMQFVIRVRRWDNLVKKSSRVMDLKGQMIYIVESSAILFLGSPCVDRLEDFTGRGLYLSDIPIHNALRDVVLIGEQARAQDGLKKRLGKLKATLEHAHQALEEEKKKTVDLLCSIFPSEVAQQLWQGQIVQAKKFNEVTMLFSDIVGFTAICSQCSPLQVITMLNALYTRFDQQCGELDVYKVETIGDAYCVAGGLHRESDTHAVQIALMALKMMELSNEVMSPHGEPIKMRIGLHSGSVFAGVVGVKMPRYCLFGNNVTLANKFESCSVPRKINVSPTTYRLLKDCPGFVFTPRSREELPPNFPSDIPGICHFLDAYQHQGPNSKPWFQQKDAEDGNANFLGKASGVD
T2 sequence (P20595 1-619): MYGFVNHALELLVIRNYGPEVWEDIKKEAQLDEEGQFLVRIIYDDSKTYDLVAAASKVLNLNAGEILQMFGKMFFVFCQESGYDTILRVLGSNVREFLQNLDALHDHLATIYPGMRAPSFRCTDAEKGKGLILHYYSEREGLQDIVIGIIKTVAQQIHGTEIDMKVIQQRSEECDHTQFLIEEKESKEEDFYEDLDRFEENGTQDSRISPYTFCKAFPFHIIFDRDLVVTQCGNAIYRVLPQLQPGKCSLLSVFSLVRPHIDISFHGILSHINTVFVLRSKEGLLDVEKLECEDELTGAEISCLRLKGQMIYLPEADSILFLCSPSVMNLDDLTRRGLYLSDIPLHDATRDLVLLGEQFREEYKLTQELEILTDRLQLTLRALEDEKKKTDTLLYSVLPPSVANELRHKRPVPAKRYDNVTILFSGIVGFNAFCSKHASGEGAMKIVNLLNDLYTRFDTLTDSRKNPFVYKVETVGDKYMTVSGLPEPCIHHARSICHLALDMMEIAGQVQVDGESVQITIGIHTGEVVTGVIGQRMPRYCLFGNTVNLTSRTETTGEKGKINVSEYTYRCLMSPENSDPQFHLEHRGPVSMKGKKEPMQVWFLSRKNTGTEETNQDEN
The experiment in a line: Effect on a recombinant guanylate cyclase reporter cell line (B-2). The class given is cell-based. Particulars: MEC = minimum effective concentration, in some cases mean values for individual determinations. Summed up: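 Cellular guanylate cyclase activity measured in a recombinant reporter cell line expressing rat soluble guanylate cyclase subunits. Values are minimum effective concentrations (MEC), some as means of individual determinations.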

As a reminder, the IC50 is the concentration needed to halve the response being measured. Low values mean greater potency, high ones weaker potency. In test [1], `Cc1nc2c(OCc3c(F)ccc(F)c3F)cccn2c1-c1nc2c(c(C(=O)N3CCNCC3)n1)C(C)(C)C(=O)N2` [Example 64, 5,5-dimethyl-2-{2-methyl-8-[(2,3,6-trifluorobenzyl)oxy]imidazo[1,2-a]pyridin-3-yl}-4-(piperazin-1-ylcarbonyl)-5,7-dihydro-6H-pyrrolo[2,3-d]pyrimidin-6-one trifluoroacetate] came in with an IC50 of 28 nM. Also, the MEC in test [2] is 10 µM.
The like results for `Cc1nc2c(OCc3c(F)ccc(F)c3F)cccn2c1-c1nc2c(c(C(=O)N3CCC(O)C3)n1)C(C)(C)C(=O)N2` (racemic) [Example 62, rac-4-[(3-hydroxypyrrolidin-1-yl)carbonyl]-5,5-dimethyl-2-{2-methyl-8-[(2,3,6-trifluorobenzyl)oxy]imidazo[1,2-a]pyridin-3-yl}-5,7-dihydro-6H-pyrrolo[2,3-d]pyrimidin-6-one] were, in that order, 400 nM and 3 µM.
Turning to `Cc1nc2c(OCc3c(F)ccc(F)c3F)cccn2c1-c1nc2c(c(-c3cc[nH]n3)n1)C(C)(C)C(=O)N2` [Example 74, 5,5-Dimethyl-2-{2-methyl-8-[(2,3,6-trifluorobenzyl)oxy]imidazo[1,2-a]pyridin-3-yl}-4-(1H-pyrazol-5-yl)-5,7-dihydro-6H-pyrrolo[2,3-d]pyrimidin-6-one], in test [1], half-maximal inhibition (IC50) required 30 nM. In test [2], the MEC is 1 µM.
With `Cc1nc2c(OCc3c(F)cccc3F)cccn2c1-c1nc(NCC(C)(C)N)c2c(n1)NC(=O)C2(C)C` [Example 12, 4-[(2-Amino-2-methylpropyl)amino]-2-{8-[(2,6-difluorobenzyl)oxy]-2-methylimidazo[1,2-a]pyridin-3-yl}-5,5-dimethyl-5,7-dihydro-6H-pyrrolo[2,3-d]pyrimidin-6-one], the IC50 in test [1] was determined as 3.6 nM. For the same molecule, in test [2], the MEC worked out at 0.2 µM.
Take `Cc1nc2c(OCc3c(F)ccc(F)c3F)cccn2c1-c1nc(N)c2c(n1)NC(=O)C2(C)C` [Example 9, 4-Amino-5,5-dimethyl-2-{2-methyl-8-[(2,3,6-trifluorobenzyl)oxy]imidazo[1,2-a]pyridin-3-yl}-5,7-dihydro-6H-pyrrolo[2,3-d]pyrimidin-6-one]: the IC50 in test [1] came to 17 nM. In test [2], the MEC was 1 µM.
For `Cc1nc2c(OCc3c(F)cccc3F)cccn2c1-c1nnc2c(n1)NC(=O)C2(C)C` [Example 68, 3-{8-[(2,6-Difluorobenzyl)oxy]-2-methylimidazo[1,2-a]pyridin-3-yl}-7,7-dimethyl-5,7-dihydro-6H-pyrrolo[2,3-e][1,2,4]triazin-6-one], in that order: 260 nM and 1 µM.
For `Cc1nc2c(OCc3c(F)cccc3F)cccn2c1-c1nc(O)c2c(n1)NC(=O)C2(C)C` [Example 5, 2-{8-[(2,6-Difluorobenzyl)oxy]-2-methylimidazo[1,2-a]pyridin-3-yl}-4-hydroxy-5,5-dimethyl-5,7-dihydro-6H-pyrrolo[2,3-d]pyrimidin-6-one trifluoroacetate], in that order: 690 nM and 3 µM.
The molecule `Cc1nc2c(OCc3c(F)cccc3F)cccn2c1-c1nc2c(c(NC3CCC(C)(O)CC3)n1)C(C)(C)C(=O)N2` (single isomer, unassigned; diastereomer 1) [Example 28, 2-{8-[(2,6-difluorobenzyl)oxy]-2-methylimidazo[1,2-a]pyridin-3-yl)-4-[(4-hydroxy-4-methylcyclohexyl)amino]-5,5-dimethyl-5,7-dihydro-6H-pyrrolo[2,3-d]pyrimidin-6-one formate (Diastereomer 1)] had a 50% inhibitory concentration (IC50) in test [1] of 0.3 nM. In test [2], the MEC is 0.3 µM.
The like results for `Cc1nc2c(OCc3c(F)ccc(F)c3F)cccn2c1-c1ncc2c(n1)NC(=O)C2(C)C` [Example 75, 5,5-Dimethyl-2-{2-methyl-8-[(2,3,6-trifluorobenzyl)oxy]imidazo[1,2-a]pyridin-3-yl}-5,7-dihydro-6H-pyrrolo[2,3-d]pyrimidin-6-one formate] were, in that order, 370 nM and 10 µM.
The like results for `Cc1nc2c(OCc3c(F)ccc(F)c3F)cccn2c1-c1nc2c(c(C(=O)NCCC(F)(F)F)n1)C(C)(C)C(=O)N2` [Example 59, 5,5-dimethyl-2-{2-methyl-8-[(2,3,6-trifluorobenzyl)oxy]imidazo[1,2-a]pyridin-3-yl}-6-oxo-N-(3,3,3-trifluoropropyl)-6,7-dihydro-5H-pyrrolo[2,3-d]pyrimidine-4-carboxamide] were, in that order, 1.7 nM and 0.3 µM.
The like results for `Cc1nc2c(OCc3c(F)ccc(F)c3F)cccn2c1-c1nc2c(c(N3CCC(CC(=O)O)CC3)n1)C(C)(C)C(=O)N2` [Example 38, [1-(5,5-dimethyl-2-{2-methyl-8-[(2,3,6-trifluorobenzyl)oxy]imidazo[1,2-a]pyridin-3-yl}-6-oxo-6,7-dihydro-5H-pyrrolo[2,3-d]pyrimidin-4-yl)piperidin-4-yl]acetic acid] were, in that order, 36 nM and 3 µM.
Molecule `Cc1nc2c(OCc3c(F)ccc(F)c3F)cccn2c1-c1nc(NCC(C)(C)O)c2c(n1)NC(=O)C2(C)C` [Example 34, 4-[(2-hydroxy-2-methylpropyl)amino]-5,5-dimethyl-2-{2-methyl-8-[(2,3,6-trifluorobenzyl)oxy]imidazo[1,2-a]pyridin-3-yl}-5,7-dihydro-6H-pyrrolo[2,3-d]pyrimidin-6-one] had an IC50 in test [1] of 5.3 nM. The MEC in test [2] was 1 µM.
For `Cc1nc2c(OCc3c(F)cccc3F)cccn2c1-c1nc2c(c(C(=O)NC3CC3)n1)C(C)(C)C(=O)N2` [Example 55, N-Cyclopropyl-2-{8-[(2,6-difluorobenzyl)oxy]-2-methylimidazo[1,2-a]pyridin-3-yl}-5,5-dimethyl-6-oxo-6,7-dihydro-5H-pyrrolo[2,3-d]pyrimidine-4-carboxamide], in that order: 4 nM and 0.3 µM.
For `Cc1nc2c(OCc3c(F)cccc3F)cccn2c1-c1nc(CN)c2c(n1)NC(=O)C2(C)C` [Example 49, 4-(Aminomethyl)-2-{8-[(2,6-difluorobenzyl)oxy]-2-methylimidazo[1,2-a]pyridin-3-yl}-5,5-dimethyl-5,7-dihydro-6H-pyrrolo[2,3-d]pyrimidin-6-one], in that order: 48 nM and 1 µM.
`Cc1nc2c(OCc3c(F)cccc3F)cccn2c1-c1nc(NCC(N)C(F)(F)F)c2c(n1)NC(=O)C2(C)C` (racemic) [Example 25, rac-4-[(2-amino-3,3,3-trifluoropropyl)amino]-2-{8-[(2,6-difluorobenzyl)oxy]-2-methylimidazo[1,2-a]pyridin-3-yl}-5,5-dimethyl-5,7-dihydro-6H-pyrrolo[2,3-d]pyrimidin-6-one]: the IC50 in test [1] stood at 15 nM. Besides, in test [2], the MEC is 3 µM.
The like results for `Cc1nc2c(OCc3c(F)cccc3F)cccn2c1-c1nc(NCCC(F)(F)F)c2c(n1)NC(=O)C2(C)C` [Example 19, 2-{8-[(2,6-difluorobenzyl)oxy]-2-methylimidazo[1,2-a]pyridin-3-yl}-5,5-dimethyl-4-[(3,3,3-trifluoropropyl)amino]-5,7-dihydro-6H-pyrrolo[2,3-d]pyrimidin-6-one] were, in that order, 7.1 nM and 1 µM.
For `Cc1cc(OCc2c(F)cccc2F)c2nc(C)c(-c3nnc4c(n3)NC(=O)C4(C)C)n2c1` [Example 69, 3-{8-[(2,6-Difluorobenzyl)oxy]-2,6-dimethylimidazo[1,2-a]pyridin-3-yl}-7,7-dimethyl-5,7-dihydro-6H-pyrrolo[2,3-e][1,2,4]triazin-6-one], in that order: 790 nM and 1 µM.
